Earlier results on 2 compounds are cited in patent publication US6852743B1, “Preventives for the recurrence of cerebrovascular failure and agents for ameliorating troubles following cerebrovascular failure and inhibiting progress thereof” (Takeda Pharmaceutical Company Limited, priority 1999, dated 2005).

The test system of one series is insulin sensitivity. To be noted: clinically; Iimura O. et al., Am J Hypertens 8, 353-357, 1995.
The subject of series [1] is automatic regulation of cerebral blood flow. The conditions noted are these: literature report, Vraamark T et al., J Hypertens 13:755-761, 1995.

For the compound `CCOc1nc2cccc(C(=O)OC(C)OC(=O)OC3CCCCC3)c2n1Cc1ccc(-c2ccccc2-c2nnn[nH]2)cc1` (centres unmarked) [Candesartan cilexetil, 1-(cyclohexyloxycarbonyloxy)ethyl 2-ethoxy-1-[[2′-(1H-tetrazole-5-yl)biphenyl-4-yl]methyl]benzimidazole-7-carboxylate], in the series on insulin sensitivity, the insulin sensitivity entry is listed as “improve insulin sensitivity clinically”.
Take `CCOc1nc2cccc(C(=O)O)c2n1Cc1ccc(-c2ccccc2-c2nnn[nH]2)cc1` [Candesartan, 2-ethoxy-1-[[2′-(1H-tetrazole-5-yl)biphenyl-4-yl]methyl]benzimidazol-7-carboxylic acid]: in series [1], the “effect on the lower limit of automatic regulation” value is on record as “can deviate the lower limit of automatic regulation leftward (toward lower blood pressure level)”.
